Data taken from PubChem BioAssay (NCI).
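Protocol summary: plate cells (96-well), add compound at 5 concentrations, incubate 48 h, interpolate endpoints linearly. Abbreviation: GI50, concentration required for 50% inhibition of growth. The concentration for full growth arrest is given as TGI.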

How the values were obtained:
Assay in all cases: NCI-60 cell line screen, 48 h
CCRF-CEM leukemia = test system: CCRF-CEM leukemia
BT-549 breast = test system: BT-549 breast
HL-60(TB) leukemia = test system: HL-60(TB) leukemia
IGROV1 ovarian = test system: IGROV1 ovarian
TK-10 renal = test system: TK-10 renal
MCF7 breast = test system: MCF7 breast
A549 NSCLC = test system: A549 NSCLC
SR leukemia = test system: SR leukemia
DU-145 prostate = test system: DU-145 prostate
MDA-MB-231 breast = test system: MDA-MB-231 breast
RPMI-8226 leukemia = test system: RPMI-8226 leukemia
UACC-62 melanoma = test system: UACC-62 melanoma
HOP-62 NSCLC = test system: HOP-62 NSCLC
A498 renal = test system: A498 renal
M14 melanoma = test system: M14 melanoma
HT29 colon = test system: HT29 colon
NCI-H522 lung = test system: NCI-H522 lung
786-0 renal = test system: 786-0 renal
MDA-MB-435 = test system: MDA-MB-435
COLO 205 colon = test system: COLO 205 colon
U251 CNS = test system: U251 CNS
K-562 leukemia = test system: K-562 leukemia
OVCAR-3 ovarian = test system: OVCAR-3 ovarian
SF-295 CNS = test system: SF-295 CNS
SK-MEL-5 melanoma = test system: SK-MEL-5 melanoma
PC-3 prostate = test system: PC-3 prostate
NCI-H226 lung = test system: NCI-H226 lung
OVCAR-4 ovarian = test system: OVCAR-4 ovarian
SK-MEL-2 melanoma = test system: SK-MEL-2 melanoma
OVCAR-5 ovarian = test system: OVCAR-5 ovarian
NCI/ADR-RES ovarian = test system: NCI/ADR-RES ovarian
HCC-2998 colon = test system: HCC-2998 colon
LOX IMVI melanoma = test system: LOX IMVI melanoma
HCT-116 colon = test system: HCT-116 colon
T-47D breast = test system: T-47D breast
HS 578T breast = test system: HS 578T breast
CAKI-1 renal = test system: CAKI-1 renal
SN12C renal = test system: SN12C renal
MOLT-4 leukemia = test system: MOLT-4 leukemia
SK-OV-3 ovarian = test system: SK-OV-3 ovarian
UO-31 renal = test system: UO-31 renal
UACC-257 melanoma = test system: UACC-257 melanoma
KM12 colon = test system: KM12 colon
NCI-H23 lung = test system: NCI-H23 lung
SF-539 CNS = test system: SF-539 CNS
HOP-92 NSCLC = test system: HOP-92 NSCLC
RXF 393 renal = test system: RXF 393 renal
ACHN renal = test system: ACHN renal
HCT-15 colon = test system: HCT-15 colon
NCI-H460 lung = test system: NCI-H460 lung
SW-620 colon = test system: SW-620 colon
SK-MEL-28 melanoma = test system: SK-MEL-28 melanoma
SNB-75 CNS = test system: SNB-75 CNS
SNB-19 CNS = test system: SNB-19 CNS
EKVX NSCLC = test system: EKVX NSCLC
SF-268 CNS = test system: SF-268 CNS
MALME-3M melanoma = test system: MALME-3M melanoma
OVCAR-8 ovarian = test system: OVCAR-8 ovarian

## Brc1c[n+](Cc2ccc3ccccc3c2)cn1Cc1ccc2ccccc2c1
CCRF-CEM leukemia
  GI50: 1690 nM
  TGI: 5040 nM
BT-549 breast
  GI50: 1690 nM
  TGI: 3180 nM
HL-60(TB) leukemia
  GI50: 1150 nM
  TGI: 3680 nM
IGROV1 ovarian
  GI50: 676 nM
  TGI: 2080 nM
TK-10 renal
  GI50: 1860 nM
  TGI: 5160 nM
MCF7 breast
  GI50: 1590 nM
  TGI: 3390 nM
A549 NSCLC
  GI50: 6900 nM
  TGI: 29400 nM
SR leukemia
  GI50: 1170 nM
  TGI: 5110 nM
DU-145 prostate
  GI50: 2540 nM
  TGI: 7750 nM
MDA-MB-231 breast
  GI50: 1400 nM
  TGI: 2860 nM
RPMI-8226 leukemia
  GI50: 1020 nM
  TGI: 3060 nM
UACC-62 melanoma
  GI50: 1240 nM
  TGI: 2580 nM
HOP-62 NSCLC
  GI50: 2160 nM
  TGI: 5960 nM
A498 renal
  GI50: 1880 nM
  TGI: 5090 nM
M14 melanoma
  GI50: 1400 nM
  TGI: 2920 nM
HT29 colon
  GI50: 1190 nM
  TGI: 3350 nM
NCI-H522 lung
  GI50: 1530 nM
  TGI: 3850 nM
786-0 renal
  GI50: 1750 nM
  TGI: 3330 nM
MDA-MB-435
  GI50: 1690 nM
  TGI: 3220 nM
COLO 205 colon
  GI50: 1310 nM
  TGI: 3160 nM
U251 CNS
  GI50: 1670 nM
  TGI: 3510 nM
K-562 leukemia
  GI50: 1840 nM
  TGI: 10600 nM
OVCAR-3 ovarian
  GI50: 1410 nM
  TGI: 2860 nM
SF-295 CNS
  GI50: 2220 nM
  TGI: 7280 nM
SK-MEL-5 melanoma
  GI50: 1600 nM
  TGI: 2960 nM
PC-3 prostate
  GI50: 1540 nM
  TGI: 3620 nM
NCI-H226 lung
  GI50: 2240 nM
  TGI: 5870 nM
OVCAR-4 ovarian
  GI50: 1320 nM
  TGI: 2760 nM
SK-MEL-2 melanoma
  GI50: 1810 nM
  TGI: 3900 nM
OVCAR-5 ovarian
  GI50: 2130 nM
  TGI: 8710 nM
NCI/ADR-RES ovarian
  GI50: > 100000 nM
  TGI: > 100000 nM
HCC-2998 colon
  GI50: 1460 nM
  TGI: 2840 nM
LOX IMVI melanoma
  GI50: 1420 nM
  TGI: 2740 nM
HCT-116 colon
  GI50: 1210 nM
  TGI: 2490 nM
T-47D breast
  GI50: 2140 nM
  TGI: 7200 nM
HS 578T breast
  GI50: 1920 nM
  TGI: 4840 nM
CAKI-1 renal
  GI50: 2030 nM
  TGI: 5170 nM
SN12C renal
  GI50: 1520 nM
  TGI: 2940 nM
MOLT-4 leukemia
  GI50: 1790 nM
  TGI: 5580 nM
SK-OV-3 ovarian
  GI50: 2560 nM
  TGI: 11400 nM
UO-31 renal
  GI50: 7090 nM
  TGI: 23100 nM
UACC-257 melanoma
  GI50: 1760 nM
  TGI: 4120 nM
KM12 colon
  GI50: 1670 nM
  TGI: 3280 nM
NCI-H23 lung
  GI50: 1350 nM
  TGI: 3180 nM
SF-539 CNS
  GI50: 1560 nM
  TGI: 3040 nM
HOP-92 NSCLC
  GI50: 904 nM
  TGI: 2390 nM
RXF 393 renal
  GI50: 2510 nM
  TGI: 6750 nM
ACHN renal
  GI50: 11800 nM
  TGI: 25500 nM
HCT-15 colon
  GI50: 11500 nM
  TGI: 25700 nM
NCI-H460 lung
  GI50: 1780 nM
  TGI: 3570 nM
SW-620 colon
  GI50: 1610 nM
  TGI: 3620 nM
SK-MEL-28 melanoma
  GI50: 1550 nM
  TGI: 3090 nM
SNB-75 CNS
  GI50: 1340 nM
  TGI: 3030 nM
SNB-19 CNS
  GI50: 1410 nM
  TGI: 2750 nM
EKVX NSCLC
  GI50: 9930 nM
  TGI: 25000 nM
SF-268 CNS
  GI50: 1470 nM
  TGI: 3020 nM
MALME-3M melanoma
  GI50: 1220 nM
  TGI: 2710 nM
OVCAR-8 ovarian
  GI50: 1890 nM
  TGI: 4550 nM
